Measurements from publication PMC9757755, “Mechanisms of ion selectivity and throughput in the mitochondrial calcium uniporter” (Science Advances, 2022).

Target: T1, TcMCU-EMRE (TcMCU-EMREEM2) (Tribolium castaneum, UniProt D6WIX5)
T1 construct: gene MCU; MCU without N-terminal domain (residues 1-168 removed), covalently fused to EMRE by flexible peptide linker; tetramer; Venus fusion removed by PreScission cleavage; expressed in Expi293 cells; purified, reconstituted in liposomes and planar bilayer; with Essential MCU regulator, mitochondrial
T1 sequence (D6WIX5 169-367): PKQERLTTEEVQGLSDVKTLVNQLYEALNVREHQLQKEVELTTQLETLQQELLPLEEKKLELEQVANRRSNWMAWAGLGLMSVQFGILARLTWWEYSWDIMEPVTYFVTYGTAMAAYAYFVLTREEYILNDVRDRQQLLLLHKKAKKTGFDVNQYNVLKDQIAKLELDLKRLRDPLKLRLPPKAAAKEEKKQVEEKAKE
T1 sequence (D6X268 1-90 partner): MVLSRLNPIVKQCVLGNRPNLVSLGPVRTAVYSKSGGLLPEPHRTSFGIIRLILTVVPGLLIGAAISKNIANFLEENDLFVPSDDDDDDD
Test: planar lipid bilayer electrophysiology, inhibition of macroscopic Ca2+ currents
Format: biochemical
Settings: symmetric 40 mM CaCl2, -160 mV, pH 7.6, 22-24 C; RuRed titrated in trans chamber with 1 uM RuRed in cis; IMS-side blocker

How did the IC50 turn out when `Cl.Cl.Cl.Cl.Cl.Cl.N.N.N.N.N.N.N.N.N.N.N.N.N.N.[O-2].[O-2].[Ru+3].[Ru+3].[Ru+4]` [ruthenium red] was run?
Its IC50 is about 40 nM.
